According to patent publication EP2207528B1, “PHARMACEUTICAL COMPOSITION” (STI Pharmaceuticals Ltd., priority 2007, dated 2009):
Values after ≈ are worked out from the molar mass of the structure shown. Like-named read-outs stand apart in the source and are kept apart here.

Experiments:
[1] = Solubility of local anaesthetic in ethanol and HFA 227
[2] = oral; cited from earlier work
[3] = Open study, THC-CBD inhaled (pMDI) vs intravenous, plasma pharmacokinetics by GC/MS; assay type: in vivo, healthy volunteers; conditions: for time measurable in plasma after administration: 360 mcg i.h. and i.v. doses; for half-life: human, plasma, 720 ug, read-out: elimination half-lives; for half-life / mean i.h. bioavailability (calculated vs. i.v.) / time of plasma peak post-drug: 720 mcg
Text: In an open study on 12 healthy volunteers a combination of THC and cannabidiol (CBD) was compared after inhalation (i.h.) and intravenously (i.v.) (see Rudolf Brenneisen, Pascale Meyer, Manuela Langos, Christian Steup and Andrew Davies, IACM Congress 2007, 05.10.2007 Cologne).
The liquid aerosol was produced by an in-vitro validated pMDI device, releasing about 45% of the cannabinoid dose, enabling a dosage of about 90 mcg THC and 90 mcg CBD per actuation. The actuator was used from Bespak with an orifice diameter of 0.22mm.
Three subjects (pilot study) received 360 and 9 subjects 720 mcg THC-CBD, corresponding to 4 and 8 actuations, respectively. The addition of a Lidocain HCL to the pulmonal preparation was expected to prevent mucosa irritation and coughing. The pharmacokinetic evaluation was based on plasma profiles aquired by GC/MS. Adverse effects were monitored by visual analog scales (VAS) and measuring vital functions.

[4] = after inhalation of a THC aerosol, Pari Master; cited from earlier work

## CCCCNc1ccc(C(=O)OCCN(C)C)cc1 [Tetracain, Tetracaine Base]
[1]; ethanol, organic solvent or mixture
  solubility: 450 mg/mL (≈ 1700 mM)
[1]; hfa 227, organic solvent or mixture
  solubility: 40 mg/mL (≈ 151 mM)
[1]; in Ethanol
  Limit of solubility in Ethanol: 450 mg/mL
[1]; in HFA 227
  Limit of solubility in HFA 227: 40 mg/mL

## CCCCCc1cc(O)c2c(c1)OC(C)(C)[C@@H]1CCC(C)=C[C@@H]21 [THC, delta-9-Tetrahydrocannabinol]
[2]
  bioavailability: 5-20%
[3]
  time measurable in plasma after administration: ≤ 20 min
[3]; after i.h.
  main metabolite: Conjugated 11-carboxy-THC
[3]; after i.h., compared with oral (p.o.) administration
  THC metabolism: less pronounced than after oral
[3]; inhaled, i.h.
  half-life: 7 min
[3]; iv, i.v.
  half-life: 22 min
[3]; i.h.
  mean i.h. bioavailability (calculated vs. i.v.): 55 ± 37%
  time of plasma peak post-drug: 5 min
[3]; i.v.
  time of plasma peak post-drug: 5 min
[4]
  bioavailability: 29%

## C=C(C)[C@@H]1CCC(C)=C[C@H]1c1c(O)cc(CCCCC)cc1O [CBD, Cannabidiol]
[3]
  time measurable in plasma after administration: ≤ 20 min
[3]; inhaled, i.h.
  half-life: 11 min
[3]; iv, i.v.
  half-life: 24 min
[3]; i.h.
  mean i.h. bioavailability (calculated vs. i.v.): 59 ± 47%
  time of plasma peak post-drug: 5 min
[3]; i.v.
  time of plasma peak post-drug: 5 min
